Data taken from article PMC12390942, “Gut microbiota–derived metabolite trimethylamine N-oxide alters the host epigenome through inhibition of S-adenosylhomocysteine hydrolase” (The Journal of Biological Chemistry, 2025).

Experiments:
[1] = target: T1, S-adenosylhomocysteine hydrolase (AHCY) (Homo sapiens, UniProt P23526); experiment: enzymatic turnover of SAH by purified recombinant AHCY, LC-MS quantification of adenosine; type: biochemical
T1 construct: human full-length AHCY, N-terminal 6xHis tag
T1 sequence (P23526 whole entry): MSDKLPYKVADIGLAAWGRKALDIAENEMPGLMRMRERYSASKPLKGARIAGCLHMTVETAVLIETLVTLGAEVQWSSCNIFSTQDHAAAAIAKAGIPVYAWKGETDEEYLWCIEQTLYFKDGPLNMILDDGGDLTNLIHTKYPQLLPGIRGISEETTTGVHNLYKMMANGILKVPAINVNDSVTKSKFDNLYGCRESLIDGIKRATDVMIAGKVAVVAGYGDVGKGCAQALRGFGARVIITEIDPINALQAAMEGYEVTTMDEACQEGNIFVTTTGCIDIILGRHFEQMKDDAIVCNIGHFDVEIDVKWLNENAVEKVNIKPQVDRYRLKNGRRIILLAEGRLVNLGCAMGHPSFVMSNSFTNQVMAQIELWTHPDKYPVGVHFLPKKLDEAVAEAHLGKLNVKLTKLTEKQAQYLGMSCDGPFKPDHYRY

[2] = target: T1, S-adenosylhomocysteine hydrolase (AHCY); experiment: steady-state inhibition kinetics on purified recombinant AHCY, ADA-coupled, LC-MS quantification of inosine; type: biochemical

Row | SMILES | enzymatic turnover of SAH by purified recombinant AHCY, LC-MS quantification of [1] | Ki [2]
1 | Nc1ncnc2c1ncn2[C@@H]1O[C@H](CSCC[C@H](N)C(=O)O)[C@@H](O)[C@H]1O [SAH] | purified AHCY revealed that SAH is converted to adenosine in an enzyme dependent fashion | 
2 | C[N+](C)(C)[O-] [TMAO] |  | 36.5 µM
